The molecules below were run on Fibroblasts (primary human lung and dermal, HFL-1, 3T3 etc) (assay: Cell proliferation assay: inhibitory effect on cell proliferation (BrdU incorporation) in fibroblasts). Conditions: HFL1, 50% inhibition of stimulant (LPA, TGFb, serum etc) induced increase of BrdU incorporation in fibroblasts.
Assay type: cell-based
Description: Assay of Inhibitory Effect on Cell Proliferation (BrdU Incorporation)
Fibroblasts (primary human lung and dermal, HFL-1, 3T3 etc) were plated on a 96-well plate and serum starved for 24-48 hours. The media were then exchanged for media containing stimulants (LPA, TGFb, serum etc) and cultured further for 16-24 hours before BrdU addition. After culturing for another 8 hours, cells were washed with PBS and the amount of BrdU incorporated into the cells was assayed by absorbance at 450 nm using the Cell proliferation ELISA system (RPN250, Amersham LIFE SCIENCE). The difference between the amount of BrdU incorporated in the stimulant-added well and the amount of BrdU incorporated in the well containing no stimulant represented the amount of BrdU incorporation accelerated by stimulant. The increase of BrdU incorporation without the addition of test compounds was set as 100% and the concentration of compound with 50% inhibition in the increase of BrdU incorporation (IC50 value) was determined. The test compounds were added 0-30 min before stimulant addition.
(§1) Compounds of some embodiments were prepared according to synthetic methods described herein and assay data obtained for IC50 for BrdU inhibition. The assay data obtained is presented in Table 3, in which A=less than 50 μM, B=greater than or equal to 50 μM and less than or equal to 200 μM; and C=greater than 200 μM.

First: O=c1c2c(ncn2C2CC2)c(-c2cn[nH]c2)cn1-c1ccc(OC(F)(F)F)cc1 [Compound 650]
Second: COCCOCCOCCOc1ccc(-n2cc(C)ccc2=O)cc1 [Compound 21]
The IC50 of the first is lower: under 50 µM for the first, over 200 µM for the second. The first is the more potent here.

These molecules were tested on endothelin-1 (ET-1) production (assay: ET-1 assay: inhibitory effect on TGF-b induced endothelin-1 production in fibroblasts (ELISA)). Conditions: Homo sapiens, Fibroblast, inhibition of stimulant (TGFb, serum, LPA etc) induced ET-1 production in fibroblasts.
Assay type: cell-based, human
Description: Assay of Inhibitory Effect on TGF-b Induced Endothelin-1 Production
Fibroblasts (primary human lung and dermal, HFL-1, 3T3 etc) are seeded in 96-well plates at ˜15000 cells/well and serum starved for 0-48 hours. After media exchange, compounds serially diluted in DMSO are added to the cells. After a brief incubation of ˜30 min, stimulants (TGFb, serum, LPA etc) are added followed by further incubation for 16-48 hours. Media is then harvested and stored frozen in plate format for later endothelin-1 (ET-1) determination by ELISA. Toxicity measurements are made using the ATPlite kit (Perkin-Elmer). ET-1 is quantified using an ELISA kit (R&D Systems). The amount of ET-1 produced in the assay wells are back-calculated using the ELISA standard. The ability of a compound to inhibit ET-1 production is typically analyzed by fitting dose-response curves to a 4-parameter logistic function to obtain an EC50 value. A measure of cytotoxicity (CC50) is likewise reported from the same experiment using the ATPlite data.
as §1, with “EC50 against ET-1.” for “IC50 for BrdU inhibition.”, “2,” for “3,”

`Cn1cc(-c2cn(-c3ccc(OC(F)(F)F)cc3)c(=O)cc2NC(=O)OCc2ccccc2)cn1` [Compound 140] and `CCCCOC(=O)Nc1cc(=O)n(-c2ccc(OC(F)(F)F)cc2)cc1-c1cnn(C)c1` [Compound 136] fall in the same range of EC50: 50 to 200 µM for the first, 50 to 200 µM for the second.

Compared with `O=c1c2c(ncn2C2CC2)c(-c2cn[nH]c2)cn1-c1ccc(OC(F)(F)F)cc1` [Compound 650], `CN1C(=O)COc2c(-c3cnn(C)c3)cn(-c3ccc(OC(F)(F)F)cc3)c(=O)c21` [Compound 396] is higher in EC50: under 50 µM for the first, over 200 µM for the second.

First: COCCOc1ccc(Oc2cc(=O)n(-c3ccc(OC(F)(F)F)cc3)cc2-c2cnn(C)c2)cc1 [Compound 533]
Second: CCOC(=O)Nc1cc(=O)n(-c2ccc(OC(F)(F)F)cc2)cc1-c1ccc(F)cc1 [Compound 114]
The EC50 of the first is lower: 50 to 200 µM for the first, over 200 µM for the second. The first is the more potent here.

`COCCOCCOCCOc1ccc(-n2cc(C)ccc2=O)cc1` [Compound 21] and `COCCOCCOCCOc1cccc(-n2cc(C)ccc2=O)c1` [Compound 22] cannot be ordered by EC50: over 200 µM for the first, over 200 µM for the second.

First: CC(=O)c1ccc(=O)n(-c2ccc(OC(C)C)cc2)c1 [Compound 10]
Second: Cc1cc(=O)n(-c2ccc(C(F)(F)F)cc2)cc1-c1ccccc1 [Compound 170]
The EC50 of the first is higher: over 200 µM for the first, under 50 µM for the second.

Same assay, conditions: inhibition of stimulant (TGFb, serum, LPA etc) induced ET-1 production in fibroblasts

Work on `CC(C)Oc1ccc(-n2cc(-c3ccc(F)cc3)ccc2=O)cc1` [Compound 288] yielded an EC50 of 50 to 200 µM.
